Measurements reported in patent US11247970B2, “Selective inhibition of gluconeogenic activity” (Dana-Farber Cancer Institute, Inc., priority 2017, dated 2022).

Assays:
[1] = Serum biochemistry for liver toxicity; assay type: in vivo; details: HFD mice
Experimental: (§1) Serum samples were gathered from blood collected by cardiac puncture. Insulin was measured with Ultra Sensitive Mouse Insulin ELISA Kit (Crystal Chem, 90080). Kits used to measure alanine transaminase (EALT-100), aspartate transaminase (EASTR-100), lactate dehydrogenase (DLDH-100) were purchased from Bioassay Systems. Kits used to measure lactate (MAK 064), b-hydroxybutyrate (MAK 041), Triglycerides (TR0100) were purchased from Sigma. Kit used to measure cholesterol (C7510) was purchased from Pointe Scientific. Kit used to measure non-esterified fatty acids was purchased from Wako.
Serum enzymatic activities of alanine transaminase (ALT), aspartate aminotransferase (AST), lactate dehydrogenase (LDH) and bilirubin levels from mice fed high fat diet and treated with SR-18292. n=7.

Lep^ob/ob mice = test: Blood glucose in Lep ob/ob mice with hepatic PGC-1α knockdown; assay type: in vivo; details: shPGC-1α adenovirus
Experimental: Virus was introduced to mice through the tail vein injection. Virus was thawed before injection and the desired amount of virus was diluted with saline to a final volume of 100 μL per mouse. Each mouse was injected with 6*10^7 pfu/g. SR-18292 treatment started on day 5 post infection.
In addition, liver toxicity, as measured by serum levels of alanine transaminase (ALT), aspartate aminotransferase (AST), lactate dehydrogenase (LDH) and bilirubin, was not observed in mice treated with SR-18292 (Table 6). […] To assess the contribution of PGC-1α in mediating the in vivo effects of SR-18292, hepatic PGC-1α in Lep^ob/ob mice was depleted using shRNA and observed a significant reduction in basal blood glucose concentrations compared to control. […] To fully assess the effects of SR-18292 on whole body glucose homeostasis and insulin resistance, a glucose tolerance test (GTT) and insulin tolerance test (ITT) were performed following the same protocol used to determine fasting blood glucose. […] As expected, insulin levels after GTT were lower in the treated group (FIG. 51). […] To test if SR-18292 chronic treatment will cause similar anti-diabetic effects, mice were treated for a period of 14 days.

[2] = Fasting insulin and liver pAkt in treated mice; assay type: in vivo
Experimental: as §1

ob/ob mice = test: Fasting glycemia and liver lipid in leptin deficient ob/ob mice; assay type: in vivo; details: diabetic leptin deficient ob/ob mice
HFD fed mice = test: Insulin tolerance test (ITT); assay type: in vivo; details: HFD 3 weeks
Experimental: All mice were purchased from Jackson laboratories and housed under a 12 h light/12 h dark cycle at 22° C. Before handling, mice were allowed to acclimate for at least 1 week in our animal facility. For in vivo studies with DIO mice, males 6-8 weeks old were fed HFD for the indicated time. For drug administration, SR-18292 was re-suspended in a 10% DMSO/10% Tween80/80% PBS solution at a final concentration of 6-12 mg/ml. Metformin was re-suspended in the same solution at a 20 mg/ml concentration. SR-18292 was injected via I.P. for 3 days between 4-5 pm and food was removed on day 3 at 5 pm. […] Metformin was administered via oral gavage. […] Insulin tolerance test was performed following the same dosing protocol, but mice were fasted for 4 hours after the forth injection before performing the test. Insulin was injected via I.P. (0.5 U/Kg) and blood glucose was measured every 20 minutes. Glycemia was measured by tail bleed using a glucometer (OneTouch). For all experiments, age- and body weight-matched animals were used. For protein, RNA extracts and biochemistry studies, livers were removed following each experiment and snap frozen in liquid nitrogen. For information on number of animals in each experiment please refer to FIGS. 4, 5 and S5 legends. All studies were performed according to protocols approved by Beth Israel Deaconess Medical Center's Animal Care and Use Committee.

[3] = test system: Pck1 and G6pc gene expression; test: Gluconeogenic gene and protein expression in primary hepatocytes (qPCR, western); assay type: cell-based, mouse
Experimental: For measurement of acetylation, gene expression and glucose production SR-18292 ([…]) was added to cells overnight and fresh compound was added the following day for additional 3 h before collecting the cells (for total of ˜18 h treatment). Where insulin and glucagon stimulation were performed, the medium was changed to starvation medium (DMEM, 0.2% BSA, 2 mM sodium pyruvate, and 1% penicillin/streptomycin) with fresh compound for the last 3 h and cells were stimulated with either 100 nM insulin or 200 nM glucagon for an extra 1.5 h. For glucose measurements following PGC-1α over expression cells were incubated for the last 3 h in glucose-free medium (phenol-red/glucose free DMEM, 0.2% BSA, 2 mM sodium pyruvate and 20 mM sodium lactate or 10 mM glycerol in case glycerol was used as substrate). For glucose measurements following glucagon stimulation cells were incubated for the last 4 h in the same glucose-free medium that also contained glucagon (200 nM). The glucose level in the medium was measured using a glucose assay kit from Eton Bioscience Inc. by adding […] of assay buffer to […] of medium followed by 15 min incubation at 37° C. Absorbance was measured at 490 nm.
siRNA oligos against mouse Ppargc1a were purchased from OriGene (SR420231). Hepatocytes were transfected with a 1:1:1:mixture of 3 unique 27mer siRNA duplexes ([…]) using Lipofectamin RNAiMax (Invitrogen) immediately upon seeding with plating medium. The following morning cells were washed with PBS and medium was changed to maintenance medium. In the afternoon, cells were transfected again and compound treatment started.
Total RNA was extracted from cells or pulverized liver using TRIzol reagent (Ambion, Life Technologies), followed by cDNA preparation from 2 μg of total RNA with a High-Capacity cDNA Reverse Transcription Kit (Applied Biosystems). cDNA products were quantified by real-time PCR using Power SYBR Green PCR Master Mix (Applied Biosystems) on a CFX384 Real-Time PCR System (Bio-Rad). To calculate IC50 from C-80 dose response, curves were fit to the hill equation in a similar manner used to calculate estimated AC50 from the high-throughput qPCR screen. However, unlike the curves from the qPCR high-throughput screen, values of relative repression were used rather than of delta-Ct.

Pck1 and G6pc promoters = test: Chromatin immunoprecipitation on Pck1 and G6pc in primary hepatocytes; assay type: cell-based, mouse
Experimental: Primary hepatocytes were fixed in 1% formaldehyde for 10 minutes at room temperature. Crosslinking was quenched by adding glycine to a final concentration of 125 mM and rinsing twice with PBS. Cells were collected in PBS containing protease inhibitors followed by lysis in chromatin immunoprecipitation (ChIP) buffer (50 mM HEPES pH, 7.9; 140 mM NaCl; 1 mM EDTA; 1% Triton X-100; 0.1% NaDOC, 0.1% sodium dodecyl sulfate (SDS) and protease inhibitors). Chromatin was sheared by sonication with a Diagenode Biorupter for three cycles of 5 minutes (30 seconds on, 30 seconds off). Samples were clarified and chromatin immunoprecipitated overnight at 4° C. with the indicated antibody. Immune complexes were recovered with Protein A magnetic beads (Dynabeads; Novex, Life Technologies) preblocked with salmon sperm DNA (Invitrogen, Life Technologies). Following extensive washes, immunoprecipitated DNA was then isolated with a Chelex. Input DNA was prepared from 10% of respective chromatin prior to precipitation. Immunoprecipitated DNA and input DNA were analyzed by quantitative real-time PCR with primers specific for the indicated region. […] To further characterize the SR-18292-mediated inhibition of HNF4α transcriptional activity, chromatin immunoprecipitation (ChIP) assays were performed to examine the promoter occupancy of HNF4α on Pck1 and [MUT] promoters. Primary hepatocytes were treated with glucagon to induce gluconeogenic gene transcripts, and antibodies against HNF4α were used to IP chromatin fragments bound to this protein. […] Epigenetic changes accompany the response to glucagon in the fasted state, including an increase in activating H3K9 acetylation (H3K9Ac) and H3K4 trimethylation (H3K4Me3) of the Pck1 and [MUT] genes.

Cc1ccc(CN(CC(O)COc2cccc3[nH]ccc23)C(C)(C)C)cc1 (stereo not shown) [SR-18292, 1-((1H-indol-4-yl)oxy)-3-(tert-butyl(4-methylbenzyl)amino)propan-2-ol]
liver toxicity by serum ALT, AST, LDH and bilirubin [1]: not observed | ALT ([1]; serum, 45 mg/kg, n=7): 9.21 U/L | AST ([1]; serum, 45 mg/kg, n=7): 29.94 U/L | Bilirubin ([1]; serum, 45 mg/kg, n=7): 0.33 mg/dL | LDH ([1]; serum, 45 mg/kg, n=7): 64.44 IU/L | SR-18292-mediated reduction in blood glucose with reduced hepatic PGC-1α (Lep^ob/ob mice): blunted SR-18292-mediated reductions in blood glucose concentrations | basal (fasting) blood insulin levels ([2]; HFD 13 weeks): not significantly changed | phosphorylation of Akt in liver ([2]; fasted mice): not changed | fasting glycemia (ob/ob mice): improved fasting glycemia | lipid accumulation in liver (ob/ob mice): without altering lipid accumulation in liver | response to insulin (HFD fed mice): enhanced | gene expression after short treatment ([3]; 3 hr treatment): no effect | gluconeogenic gene and protein expression induced by ectopic PGC-1α ([3]; Ad-PGC-1α infected hepatocytes): significantly reduced | glucagon-stimulated Pck1 and G6pc gene expression ([3]; glucagon 200 nM): significantly reduced | PEPCK protein levels ([3]; hepatocytes infected with Ad-PGC-1α): reduced | suppression of Pck1 and G6pc after siRNA knock down of PGC-1α ([3]; siRNA against Ppargc1a): significantly impairs the ability of SR-18292 to suppress Pck1 and G6pc | FoxO1 promoter occupancy (Pck1 and G6pc promoters): not altered | H3K9Ac and H3K4Me3 marks on the Pck1 gene (Pck1 and G6pc promoters): reduced H3K9Ac and H3K4Me3 marks | glucagon-induced Pck1 and G6pc promoter occupancy by HNF4α (Pck1 and G6pc promoters; glucagon 200 nM): significantly reduced
